This is an account of results in patent US20130005696A1, “BUFADIENOLIDE DERIVATIVES, PREPARING PROCESS THEREOF, COMPOSITION COMPRISING THE SAME AND THE USE THEREOF” (priority 2011, published 2013).

For test [1], the system named is MCF-7 human breast carcinoma cell line. Kind of test: In vitro antitumor activity assay (SRB), MCF-7. The following applies: Homo sapiens, MCF7; MCF-7, Table 2; read-out: IC50, inhibition of cell proliferation, MCF-7. The test is classed as cell-based. An excerpt:
(§1) HeLa human cervical carcinoma cell line, A-549 human non-small cell lung carcinoma cell line, NCI-H2228 human lung carcinoma cell line, NCI-H460 human lung carcinoma cell line, MDA-MB-231 human breast carcinoma cell line, MCF-7 human breast carcinoma cell line, Bel-7402 human hepatic carcinoma cell line, Hep3B human hepatic carcinoma cell line, QGY-7703 human hepatic carcinoma cell line, MV-4-11 human leukemic cell line, DAUDI human leukemic cell line, Jurkat human leukemic cell line, A498 renal carcinoma cell line, LoVo human colon carcinoma cell line, HCT1116 human colon carcinoma cell line, A431 human skin carcinoma cell line, PANC-1 human pancreatic carcinoma cell line, U87-MG human brain carcinoma cell line, SH-SY5Y human brain carcinoma cell line, RPMI-8226 human bone carcinoma cell line, HT1080 human fibrosarcoma cell line, PC-3 human prostatic carcinoma cell line, AGS human gastric adenocarcinoma cell line, and BGC-823 human gastric adenocarcinoma cell line were purchased from the Cell Bank of the Chinese Academy of Sciences.
(§2) The positive control is bufalin (formulated according to the common method), its purity is 98% or more by HPLC-UV and its structure is identified by NMR. The compounds to be tested and the positive control were diluted with normal saline with a concentration gradient of 10^−4 M, 10^−5 M, 10^−6 M, 10^−7 M and 10^−8 M.
(§3) According to cell growth rate, tumor cells in the log phase of growth were seeded into 96-well culture plates at 100 μL per well, and allowed to attach for 24 hours, followed by addition of a test compound or positive control at 10 μL per well. For each concentration, the test was carried out in triplicate wells. Solvent control wells with addition of normal saline into cell culture and a blank well containing only cell culture medium but without cells for zeroing were also included. The tumor cells were incubated for 72 hours at 37° C. under 5% CO2, and then the culture medium (RPMI-1640) was removed. The cells were fixed with 10% cool TCA by incubating for 1 h at 4° C., washed with distilled water for 5 times, and dried naturally in the air. A solution of SRB (Sigma) (4 mg/mL) in 1% glacial acetic acid was added at 100 μL per well, and the cells were stained for 15 minutes at room temperature, and the supernatant was discarded. The plates were washed for 5 times with 1% acetic acid, and dried in air. Finally, Tris solution was added at 150 μL per well, and the absorbance (A) was measured at a wavelength of 515 nm using a microplate reader. The growth inhibition on tumor cell proliferation was calculated according to the following equation:
(§4) Growth Inhibition (%)=[(Absorbance of negative control−Absorbance of blank)−(Absorbance of sample−Absorbance of blank)]/(Absorbance of negative control−Absorbance of blank)×100%
(§5) Drug concentration: 10 μM, 1 μM, 0.1 μM, 10 nM, 1 nM, 0.1 nM.
(§6) IC50 was fitted by GraphPad Prism 4.

Test [2] relates to PC-3 human prostatic carcinoma cell line. In words: In vitro antitumor activity assay (SRB), PC-3. The test is classed as cell-based. The following applies: Homo sapiens, Prostatic carcinoma cell; PC-3, Table 2; read-out: IC50, inhibition of cell proliferation, PC-3.
Source text: as §1, §2, §3, §4, §5, §6

The subject of test [3] is A-549 human non-small cell lung carcinoma cell line. In words: In vitro antitumor activity assay (SRB), A549. In kind it is cell-based. The following applies: Homo sapiens; A549, Table 2; read-out: IC50, inhibition of cell proliferation, A549.
Source text: as §1, §2, §3, §4, §5, §6

Test [4] deals with LoVo human colon carcinoma cell line. Kind of test: In vitro antitumor activity assay (SRB), LoVo. In kind it is cell-based. The following applies: Table 2, read-out: IC50, inhibition of cell proliferation, LoVo.
Source text: as §1, §2, §3, §4, §5, §6

Test [5] has as its system HeLa human cervical carcinoma cell line. Kind of test: In vitro antitumor activity assay (SRB), HeLa. In kind it is cell-based. The following applies: read-out: IC50, inhibitory activity on cell proliferation of HeLa cell line.
Source text: as §1, §2, §3, §4, §5, §6

Test [6] concerns human-derived leukaemia MV-4-11 xenograft. In words: Therapeutic effect against MV-4-11 xenograft in nude mice. The test is classed as in vivo, Balb/c nude mice. On the procedure: (§7) This experiment is to investigate the in vivo inhibitory effect of II1E-01.HCl on growth of human-derived hepatic carcinoma HepG2 cell, human-derived breast carcinoma MDA-MB-231 cell, human-derived lung carcinoma H460 cell, human-derived colon carcinoma HCT-116 cell, human-derived […] MV-4-11 cell xenografts in nude mice.
(§8) Formulation of solvent control (5% anhydrous ethanol & 5% aqueous glucose solution): 2.5 mL anhydrous ethanol was added into a 50 mL tube, followed by addition of 47.5 mL 5% glucose solution for injection followed by shaking, and stored at room temperature before use.
(§9) Formulation of the preparations of the compounds to be tested: formulations with concentrations of 0.4 mg/mL and 0.6 mg/mL were prepared respectively. An appropriate amount of II1E-01.HCl was weighted and put into a 50 mL tube, followed by addition of corresponding volume of solvent to get the desired concentration and mixed using a vortex mixer. After the solid was dissolved completely, the solution was subpackaged into 4 mL vials and stored at refrigerated condition (2-8° C.) until use.
(§10) Experimental animals: Balb/c nude mice (male, six weeks old).
MV-4-11 cells were in vitro cultured to be proliferated. The cells in the log phase of growth were collected and resuspended in IMDM serum-free medium, and then implanted subcutaneously into the axilla of the right forelimb of nude mice. After 37 days, the tumor size reached about 270 mm^3. The mice bearing the tumor were grouped by randomized block method according to the tumor size into 3 groups, which contain 6 mice in each group and include the group of solvent control, group of positive control (Sunitinib 40 mg/kg), and group of the testing compound II1E-01.HCl (4 mg/kg QOD). In the positive control group, sunitinib was administered intragastrically once daily (QD). In the group of II1E-01.HCl, II1E-01.HCl was administered intravenously at tail once every other day (QOD). The animals were given the drugs for 21 days, during which the growth of tumor and the body weight of the mice were observed.
After continuously administering for 21 days (the 58th day after the implantation), the tumor weight and inhibition rate were calculated, and results are listed in Table 9. […] In the group of the testing compound II1E-01.HCl (4 mg/kg QOD), the tumor also completely disappeared at 14th day after administration, and the inhibition rate was 100.00% (P<0.01) at the end of the experiment.

The test system of test [7] is human hepatic carcinoma HepG2 xenograft. Kind of test: Therapeutic effect against HepG2 xenograft in nude mice. The following applies: QW × 14 d. In kind it is in vivo, Balb/c nude mice. As for the experimental part: as §7, §8, §9, §10
HepG2 cells were in vitro cultured to be proliferated. The cells in the log phase of growth were collected and resuspended in DMEM serum-free medium, and then implanted subcutaneously into the axilla of the right forelimb of nude mice. After 11 days, the tumor size reached about 250 mm^3. The mice bearing the tumor were grouped according to the tumor size into 6 groups, including the group of solvent control, groups of positive controls (Rapamycin 10 mg/kg and Vinorelbine 8 mg/kg), and groups of low (2 mg/kg), middle (4 mg/kg) and high (6 mg/kg) dosages of the testing compound II1E-01.HCl. Each group was administered intravenously at tail. In the solvent control group, the solvent control solution was administered intravenously once every other day (QOD). In the low, middle and high dosage groups of II1E-01.HCl, II1E-01.HCl was administered intravenously once every other day (QOD). In the positive control groups, Rapamycin 10 mg/kg and Vinorelbine 8 mg/kg were administered once a week (QW). The animals were given the drugs for two weeks. In the two week time period, the growth of tumor and the body weight of the mice were observed.
Two weeks after administering (the 25th day after the implantation), the tumor weight and inhibition rate were calculated, and results are listed in Table 5.

For test [8], the system named is human non-small cell lung carcinoma A549 xenograft. Kind of test: In vivo therapeutic effect against A549 xenograft in nude mice. The following applies: A549 xenograft, 5 mg/kg iv QW, after 21 days. On the procedure: This experiment is to evaluate the in vivo therapeutic effects of compounds bufalin, II1D-06.HCl, II1E-01.HCl and II1B-02.HCl against human-derived lung carcinoma A549 cell xenograft in nude mice.
Solvent control: 4% DMSO & 2% Tween-80 & 5% PEG-400 solution in normal saline
Compounds to be tested: bufalin, II1B-02.HCl, II1E-01.HCl, II1D-06.HCl
Formulating method: the compound was dissolved with DMSO into a stock solution, which was then diluted into an injection with a final DMSO concentration of 4%.
Positive control: Rapamycin Formulating method: it was formulated into an injection with a final DMSO concentration of 4%.
After the tumor size reaches about 200 mm^3, the mice bearing the tumor were grouped randomly into 8 groups according to the tumor size, including the groups of solvent control, positive control rapamycin 5 mg/kg, II1E-01.HCl 2 mg/kg, II1E-01.HCl 4 mg/kg, II1E-01.HCl 6 mg/kg, II1B-02.HCl 4 mg/kg, II1D-06.HCl 4 mg/kg, bufalin 1.6 mg/kg, wherein the dosage selection is based on that the maximum tolerable dosage is 1.6 mg/kg for bufalin and 6 mg/kg for II1E-01.HCl. Rapamycin was administered intravenously once a week (QW) and the other groups were administered intraperitoneally once every other day (QOD). The tumor was weighted after 21 days to calculate the inhibition rate. The equation for calculating inhibition rate (IR) is IR=(WC−WT)/WC×100%, wherein, WC represents the tumor weight of the control group, and WT represents the tumor weight of the treating group.

With `CN(C)CCN(C)C(=O)O[C@H]1CC[C@@]2(C)[C@H](CC[C@@H]3[C@@H]2CC[C@]2(C)[C@@H](c4ccc(=O)oc4)CC[C@]32O)C1` [II1B-03], the IC50 in test [1] was found to be 10.6 ± 3.04 nM; in test [2] it was 27.3 ± 2.46 nM; in test [3], 2.81 ± 0.43 nM; in test [4] it was 13.4 ± 3.37 nM; in test [5], 1.58 nM.
`CCN(CC)CCNC(=O)O[C@H]1CC[C@@]2(C)[C@H](CC[C@@H]3[C@@H]2CC[C@]2(C)[C@@H](c4ccc(=O)oc4)CC[C@]32O)C1` [II1B-02]: the IC50 is 18.8 ± 2.68 nM in test [1]; 20.1 ± 4.08 nM in test [2]; 0.39 ± 0.08 nM in test [3]; 15.7 ± 1.67 nM in test [4]; 3.73 nM in test [5].
`CCN(CC)CCNC(=O)c1c(C)[nH]c(/C=C2\C(=O)Nc3ccc(F)cc32)c1C` [Sunitinib, reference compound]: the “day after administration at which the tumor completely disappeared” value in test [6] (40 mg/kg ig QD) is 10 days. The “Tumor Weight(g) Mean ± SE” value in test [6] (40 mg/kg ig, QD × 21 d) is listed as 0.0000 ± 0.0000 g. Moreover, the “Inhibition Rate (%)” value in test [6] (40 mg/kg ig, QD × 21 d, 40 mg/kg) amounted to 100.00%.
With `C[C@]12CC[C@H](OC(=O)N3CCCNCC3)C[C@H]1CC[C@@H]1[C@@H]2CC[C@]2(C)[C@@H](c3ccc(=O)oc3)CC[C@]12O` [II1D-06], the IC50 in test [1] stood at 2.13 ± 0.29 nM; in test [2], 1.25 ± 0.46 nM; in test [3], 0.87 ± 0.02 nM; in test [4], 0.58 ± 0.29 nM; in test [5], 0.45 nM.
For `C[C@]12CC[C@H](OC(=O)NCC3CCCCN3)C[C@H]1CC[C@@H]1[C@@H]2CC[C@]2(C)[C@@H](c3ccc(=O)oc3)CC[C@]12O` (some centres unmarked) [II1E-03] the same measures were 31 ± 3.07 nM, 14.8 ± 1.12 nM, 0.58 ± 0.17 nM, 23.4 ± 3.68 nM and 0.8 nM.
`CCC1=C[C@@H]2CN(C1)Cc1c([nH]c3ccccc13)[C@@](C(=O)OC)(c1cc3c(cc1OC)N(C)[C@H]1[C@@](O)(C(=O)OC)[C@H](OC(C)=O)[C@]4(CC)C=CCN5CC[C@]31[C@@H]54)C2` [Vinorelbine, reference compound]: in test [7] (8 mg/kg iv), the “Tumor Weight(g) Mean ± SE” value was 0.4719 ± 0.0660 g. Also, in test [7] (8 mg/kg iv, 8 mg/kg), the “Inhibition Rate (%)” value is reported as 38.36%.
Take `CCNCCNC(=O)O[C@H]1CC[C@@]2(C)[C@H](CC[C@@H]3[C@@H]2CC[C@]2(C)[C@@H](c4ccc(=O)oc4)CC[C@]32O)C1` [II1B-05]: the IC50 in test [1] stood at 7.98 ± 1.9 nM; in test [2], 12.6 ± 0.86 nM; in test [3], 2.83 ± 0.9 nM; in test [4], 14.4 ± 0.76 nM; in test [5] it was 1.65 nM.
With `CO[C@H]1C[C@@H]2CC[C@@H](C)[C@@](O)(O2)C(=O)C(=O)N2CCCC[C@H]2C(=O)O[C@H]([C@H](C)C[C@@H]2CC[C@@H](O)[C@H](OC)C2)CC(=O)[C@H](C)/C=C(\C)[C@@H](O)[C@@H](OC)C(=O)[C@H](C)C[C@H](C)/C=C/C=C/C=C/1C` [rapamycin, Rapamycin, reference compound], the “Tumor Weight(g) Mean ± SE” value in test [7] (10 mg/kg iv) stood at 0.4806 ± 0.0269 g; in test [8], 0.6925 ± 0.0652 g. Besides, the “Inhibition Rate (%)” value in test [7] (10 mg/kg iv, 10 mg/kg) was 37.23%; in test [7] (10 mg/kg iv, listed as Rapamycin, 10 mg/kg), 37.23%; in test [8], 58.86%.
